{"source": "the NIST ThermoML archive (doi:10.1021/je300997v)", "key": {"[1]": {"details": "Crystal; DTA"}, "[2]": {"test": "xn = mol fraction of the nth substance listed", "details": "298.2 K, 101 kPa, Liquid; for viscosity: Capillary tube (Ostwald / Ubbelohde) method; for mass density: Pycnometric method; for electrical conductivity: conductivity meter"}}, "note": "Numbers after ± are expanded uncertainties."}
{"compound": "C[N+](C)(C)CCO.[Cl-]", "note": "[choline chloride]", "values": [{"measurement": "Normal melting temperature", "setting": "[1]", "result": "304.1 ± 0.5", "unit": "°C"}]}
{"compound": "Cc1ccccc1O", "note": "[2-methylphenol] + C[N+](C)(C)CCO.[Cl-]", "values": [{"measurement": "viscosity", "setting": "[2]; x1 = 0.6667", "result": "207.41 ± 12", "unit": "mPa·s"}, {"measurement": "viscosity", "setting": "[2]; x1 = 0.75", "result": "77.65 ± 4", "unit": "mPa·s"}, {"measurement": "viscosity", "setting": "[2]; x1 = 0.7963", "result": "46.95 ± 2", "unit": "mPa·s"}, {"measurement": "viscosity", "setting": "[2]; x1 = 0.8333", "result": "34.9 ± 1.4", "unit": "mPa·s"}, {"measurement": "viscosity", "setting": "[2]; x1 = 0.8571", "result": "27.82 ± 1.1", "unit": "mPa·s"}, {"measurement": "mass density", "setting": "[2]; x1 = 0.6667", "result": "1077.6 ± 1.2", "unit": "kg/m3"}, {"measurement": "mass density", "setting": "[2]; x1 = 0.75", "result": "1070.7 ± 1.2", "unit": "kg/m3"}, {"measurement": "mass density", "setting": "[2]; x1 = 0.7963", "result": "1066.4 ± 1.2", "unit": "kg/m3"}, {"measurement": "mass density", "setting": "[2]; x1 = 0.8333", "result": "1063.1 ± 1.2", "unit": "kg/m3"}, {"measurement": "mass density", "setting": "[2]; x1 = 0.8571", "result": "1060.6 ± 1.2", "unit": "kg/m3"}, {"measurement": "electrical conductivity", "setting": "[2]; x1 = 0.6667", "result": "0.083 ± 0.001", "unit": "S/m"}, {"measurement": "electrical conductivity", "setting": "[2]; x1 = 0.75", "result": "0.121 ± 0.002", "unit": "S/m"}, {"measurement": "electrical conductivity", "setting": "[2]; x1 = 0.7963", "result": "0.141 ± 0.002", "unit": "S/m"}, {"measurement": "electrical conductivity", "setting": "[2]; x1 = 0.8333", "result": "0.145 ± 0.002", "unit": "S/m"}, {"measurement": "electrical conductivity", "setting": "[2]; x1 = 0.8571", "result": "0.138 ± 0.002", "unit": "S/m"}]}
